# System: Molm-13 cells
# Test: Inhibition of Molm-13 cells
# Format: cell-based
# Settings: Homo sapiens
compound,measurement,setting,value
"COc1cc2c(N[C@H](C)c3cccs3)nc(C)nc2cc1OCCCCCCCCC(=O)N[C@H](C(=O)N1C[C@H](O)C[C@H]1C(=O)NCc1ccc(-c2scnc2C)cc1)C(C)(C)C [Compound D5, (2S,4R)-4-Hydroxy-1-((S)-2-(9-((6-methoxy-2-methyl-4-(((R)-1-(thiophen-2-yl)ethyl)amino)quinazolin-7-yl)oxy)nonanamido)-3,3-dimethylbutanoyl)-N-(4-(4-methylthiazol-5-yl)benzyl)pyrrolidine-2-carboxamide]",inhibition at 1 µM,"compound 1 μM, read-out: Inhibition of Molm-13 Cells, percentage of inhibition at 1 μM",22%
same,inhibition at 10 µM,"compound 10 μM, read-out: Inhibition of Molm-13 Cells, percentage of inhibition at 10 μM",99%

# — patent publication US20240025863A1, “SOS1 PROTEIN DEGRADERS, PHARMACEUTICAL COMPOSITIONS THEREOF, AND THEIR THERAPEUTIC APPLICATIONS” (BioTheryX, Inc., priority 2020, published 2024)
